Measured values taken from the NIST ThermoML archive (doi:10.1021/acs.jced.9b00509).
Numbers after ± are expanded uncertainties.

Assay: mean ionic activity coefficient (dimensionless); mn = molality of the nth substance listed, in mol/kg
Details: 278.15 K, 100 kPa, Liquid, cell potential measurements

In the case of `[Cl-].[Na+]` [sodium chloride] + O, the “mean ionic activity coefficient” value (m1 = 0.0101) is reported as 0.895 ± 0.096, the “mean ionic activity coefficient” value (m1 = 0.05) is reported as 0.833 ± 0.096 and the “mean ionic activity coefficient” value (m1 = 0.0999) is reported as 0.771 ± 0.096. For the same molecule, the “mean ionic activity coefficient” value (m1 = 0.1999) was 0.741 ± 0.096, the “mean ionic activity coefficient” value (m1 = 0.5) was 0.642 ± 0.096 and the “mean ionic activity coefficient” value (m1 = 0.9999) was 0.619 ± 0.096. The “mean ionic activity coefficient” value (m1 = 1.999) was 0.628 ± 0.096 and the “mean ionic activity coefficient” value (m1 = 2.999) was 0.654 ± 0.096.
